Experiments:
Experiment in all cases: Zones of inhibition of impregnated catheter segments, modified Kirby-Bauer method
[1] = tested on: vancomycin-resistant Enterococcus (VRE); type: cell-based; details: Enterococcus, catheter impregnated with 100 mg/ml of each agent
Protocol: (§1) To evaluate the antimicrobial activity of central venous catheters treated with α-lipoic acid or its combination with gentamicin, segments of 7 French triple lumen polyurethane central venous catheters were impregnated with α-lipoic acid, gentamicin, or the combination of lipoic acid and gentamicin using the same patented method described in Example 1 with 50 mg/ml of each agent (for the final solution volume). After the impregnation process and drying, zones of inhibition were performed on one-centimeter segments according to a modified Kirby-Bauer method against MSSE, MRSE, MRSA, K. pneumoniae, E. coli, P. mirabilis, Pseudomonas aeruginosa, and Candida albicans. Each segment was half embedded in the center of a Muller-Hinton agar plate that had been previously inoculated with an individual organism. Prior to placing the catheter segments in agar, each organism was grown for 18 hours in TSB to a concentration of 0.5 McFarland (10^8 cfu/ml). A cotton swab was placed in the suspension and streaked across the surface of the Muller-Hinton agar plate to cover the entire plate. All plates were placed in a 37° C. incubator for 24 hours. Zones were measured in mm after the incubation period (Table 2).
(§2) To evaluate the antimicrobial activity of central venous catheters treated with lipoamide or its combination with levofloxacin, segments of 7 French triple lumen polyurethane central venous catheters were impregnated with levofloxacin or the combinations of lipoamide and levofloxacin using the same patented method described in Example 1 (U.S. Pat. No. 6,589,591) with 100 mg/ml (final solution volume) of each agent. […] Zones of inhibition were measured in mm after the incubation period (Table 4).
as §2, with “doxycycline,” for “levofloxacin,”, “doxycycline” for “levofloxacin”, “5).” for “4).”
as §2, with “dihydrolipoic acid,” for “lipoamide or its combination with levofloxacin,”, “dihydrolipoic acid” for “levofloxacin or the combinations of lipoamide and levofloxacin”, “25” for “100”, “the” for “each”, “6).” for “4).”

MSSE = type: cell-based, Staphylococcus epidermidis; details: for zone of inhibition at 100000 µg/mL: catheter impregnated with 100 mg/ml of each agent
Protocol: as §1
(§3) To evaluate the antimicrobial activity of central venous catheters treated with α-lipoic acid or its combination with doxycycline, segments of 7 French triple lumen polyurethane central venous catheters were impregnated with doxycycline or the combinations of α-lipoic acid and doxycycline using the same patented method described in Example 1 (U.S. Pat. No. 6,589,591) with 50 mg/ml of each agent (for the final solution volume). After the impregnation process and drying, zones of inhibition were performed on one-centimeter segments according to a modified Kirby-Bauer method against MSSE, MRSE, MRSA, K. pneumoniae, E. coli, P. aeruginosa, P. mirabilis, and C. albicans as described in Example 2. Zones of inhibition were measured in mm after the incubation period (Table 3).
(§4) To evaluate the antimicrobial activity of central venous catheters treated with lipoamide or its combination with levofloxacin, segments of 7 French triple lumen polyurethane central venous catheters were impregnated with levofloxacin or the combinations of lipoamide and levofloxacin using the same patented method described in Example 1 (U.S. Pat. No. 6,589,591) with 100 mg/ml (final solution volume) of each agent. After the impregnation process and drying, zones of inhibition were performed on one-centimeter segments according to a modified Kirby-Bauer method against MSSE, MRSE, MRSA, vancomycin-resistant Enterococcus (VRE), K. pneumoniae, E. coli, P. aeruginosa, P. mirabilis, and C. albicans as described in Example 2. Zones of inhibition were measured in mm after the incubation period (Table 4).
as §4, with “doxycycline,” for “levofloxacin,”, “doxycycline” for “levofloxacin”, “5).” for “4).”
(§5) To evaluate the antimicrobial activity of central venous catheters treated with dihydrolipoic acid, segments of 7 French triple lumen polyurethane central venous catheters were impregnated with dihydrolipoic acid using the same patented method described in Example 1 (U.S. Pat. No. 6,589,591) with 25 mg/ml (final solution volume) of the agent. […]

MRSE = type: cell-based, Staphylococcus epidermidis; details: for zone of inhibition at 100000 µg/mL: catheter impregnated with 100 mg/ml of each agent
Protocol: as §1, §3, §4
as §4, with “doxycycline,” for “levofloxacin,”, “doxycycline” for “levofloxacin”, “5).” for “4).”
as §5

MRSA = type: cell-based, Staphylococcus aureus; details: for zone of inhibition at 100000 µg/mL: catheter impregnated with 100 mg/ml of each agent
Protocol: as §1, §3, §4
as §4, with “doxycycline,” for “levofloxacin,”, “doxycycline” for “levofloxacin”, “5).” for “4).”
as §5

Proteus mirabilis = type: cell-based; details: for zone of inhibition at 100000 µg/mL: catheter impregnated with 100 mg/ml of each agent
Protocol: as §1, §3, §4
as §4, with “doxycycline,” for “levofloxacin,”, “doxycycline” for “levofloxacin”, “5).” for “4).”
as §5

Klebsiella pneumoniae II = type: cell-based; details: for zone of inhibition at 100000 µg/mL: Klebsiella pneumoniae II, catheter impregnated with 100 mg/ml of each agent
Protocol: as §1, §3, §4
as §4, with “doxycycline,” for “levofloxacin,”, “doxycycline” for “levofloxacin”, “5).” for “4).”
as §5

Escherichia coli = type: cell-based; details: for zone of inhibition at 100000 µg/mL: catheter impregnated with 100 mg/ml of each agent
Protocol: as §1, §3, §4
as §4, with “doxycycline,” for “levofloxacin,”, “doxycycline” for “levofloxacin”, “5).” for “4).”
as §5

Pseudomonas aeruginosa = type: cell-based; details: Pseudomonas aeruginosa; for zone of inhibition at 100000 µg/mL: Pseudomonas aeroginosa, catheter impregnated with 100 mg/ml of each agent
Protocol: as §1, §3, §4
as §4, with “doxycycline,” for “levofloxacin,”, “doxycycline” for “levofloxacin”, “5).” for “4).”
as §5

Candida albicans = type: cell-based; details: for zone of inhibition at 100000 µg/mL: catheter impregnated with 100 mg/ml of each agent
Protocol: as §1, §3, §4
as §4, with “doxycycline,” for “levofloxacin,”, “doxycycline” for “levofloxacin”, “5).” for “4).”
as §5

Klebsiella pneumoniae I = type: cell-based; details: for zone of inhibition at 100000 µg/mL: catheter impregnated with 100 mg/ml of each agent
Protocol: as §1, §3, §4
as §4, with “doxycycline,” for “levofloxacin,”, “doxycycline” for “levofloxacin”, “5).” for “4).”
as §5

[2] = Staphylococcus epidermidis, catheter impregnated with 50 mg/ml of each agent, 37° C., 24 hours
[3] = catheter impregnated with 50 mg/ml of each agent, 37° C., 24 hours

Compound	zone of inhibition at 100000 µg/mL [1] [mm]	zone of inhibition at 100000 µg/mL (MSSE; Staphylococcus epidermidis) [mm]	zone of inhibition at 100000 µg/mL (MRSE; Staphylococcus epidermidis) [mm]	zone of inhibition at 100000 µg/mL (MRSA; Staphylococcus aureus) [mm]	zone of inhibition at 100000 µg/mL (Proteus mirabilis) [mm]	zone of inhibition at 100000 µg/mL (Klebsiella pneumoniae II) [mm]	zone of inhibition at 100000 µg/mL (Escherichia coli) [mm]	zone of inhibition at 100000 µg/mL (Pseudomonas aeruginosa) [mm]	zone of inhibition at 100000 µg/mL (Candida albicans) [mm]	zone of inhibition at 100000 µg/mL (Klebsiella pneumoniae I) [mm]	further results
C[C@H]1c2cccc(O)c2C(=O)C2=C(O)[C@]3(O)C(=O)C(C(N)=O)=C(O)[C@@H](N(C)C)[C@@H]3[C@@H](O)[C@@H]21 [Doxycycline, doxycycline]	30	20	38	19	0	7	22	11	5	19	zone of inhibition at 50000 µg/mL (MSSE; [2]): 21 mm; zone of inhibition at 50000 µg/mL (MRSE; [2]): 35 mm; zone of inhibition at 50000 µg/mL (MRSA; Staphylococcus aureus, catheter impregnated with 50 mg/ml of each agent, 37° C., 24 hours): 22 mm; zone of inhibition at 50000 µg/mL (Proteus mirabilis; [3]): 4 mm; zone of inhibition at 50000 µg/mL (Klebsiella pneumoniae II; Klebsiella pneumoniae, Klebsielle pneuminiae II, catheter impregnated with 50 mg/ml of each agent, 37° C., 24 hours): 13 mm; zone of inhibition at 50000 µg/mL (Escherichia coli; [3]): 24 mm; zone of inhibition at 50000 µg/mL (Pseudomonas aeruginosa; [3]): 13 mm; zone of inhibition at 50000 µg/mL (Candida albicans; [3]): 13 mm; zone of inhibition at 50000 µg/mL (Klebsiella pneumoniae I; [3]): 17 mm
C[C@H]1COc2c(N3CCN(C)CC3)c(F)cc3c(=O)c(C(=O)O)cn1c23 [Levofloxacin, levofloxacin]	7	30	31	21	31	18	27	19	0	24	–
gentamicin	–	–	–	–	–	–	–	–	–	–	Zones of inhibition (MSSE; [3]): 21 mm; Zones of inhibition (MRSE; [3]): 22 mm; Zones of inhibition (MRSA; [3]): 15 mm; Zones of inhibition (Proteus mirabilis; [3]): 14 mm; Zones of inhibition (Klebsiella pneumoniae II; Klebsielle pneuminiae II, catheter impregnated with 50 mg/ml of each agent, 37° C., 24 hours): 0 mm; Zones of inhibition (Escherichia coli; [3]): 12 mm; Zones of inhibition (Pseudomonas aeruginosa; [3]): 5 mm; Zones of inhibition (Candida albicans; [3]): 0 mm; Zones of inhibition (Klebsiella pneumoniae I; [3]): 13 mm

From patent publication US9956319B2, “Compositions useful as antibiofilm or antimicrobial agents and methods using same” (BAYLOR COLLEGE OF MEDICINE, priority 2012, dated 2018)
